Test results taken from PMC6267221, “Renal Cell Carcinoma Is Abrogated by p53 Stabilization through Transglutaminase 2 Inhibition” (Cancers, 2018).

T1: transglutaminase 2 (TGase 2) (Homo sapiens, UniProt P21980)
T1 construct: gene TGM2; recombinant human TGase 2, polyhistidine-tagged
T1 sequence (P21980 2-687): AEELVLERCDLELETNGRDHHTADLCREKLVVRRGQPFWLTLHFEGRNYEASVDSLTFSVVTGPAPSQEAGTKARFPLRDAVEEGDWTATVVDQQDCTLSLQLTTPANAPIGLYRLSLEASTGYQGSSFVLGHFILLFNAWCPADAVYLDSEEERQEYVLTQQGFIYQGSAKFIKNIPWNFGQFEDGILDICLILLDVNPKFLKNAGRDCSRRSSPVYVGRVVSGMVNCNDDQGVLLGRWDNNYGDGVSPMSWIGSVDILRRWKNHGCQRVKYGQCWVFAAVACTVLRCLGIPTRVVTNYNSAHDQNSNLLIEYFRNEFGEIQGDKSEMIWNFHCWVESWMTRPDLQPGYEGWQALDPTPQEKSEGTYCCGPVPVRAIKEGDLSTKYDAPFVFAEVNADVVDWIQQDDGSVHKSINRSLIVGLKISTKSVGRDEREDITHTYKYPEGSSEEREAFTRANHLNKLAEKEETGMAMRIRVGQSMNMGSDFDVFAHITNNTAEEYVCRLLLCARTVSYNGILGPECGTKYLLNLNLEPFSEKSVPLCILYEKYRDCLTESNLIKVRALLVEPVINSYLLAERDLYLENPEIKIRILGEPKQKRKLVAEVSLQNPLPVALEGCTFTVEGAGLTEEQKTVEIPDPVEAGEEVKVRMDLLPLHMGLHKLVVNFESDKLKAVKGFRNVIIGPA

T2: guinea pig liver TGase 2 (UniProt P08587)
T2 construct: gene TGM2
T2 sequence (P08587 2-690): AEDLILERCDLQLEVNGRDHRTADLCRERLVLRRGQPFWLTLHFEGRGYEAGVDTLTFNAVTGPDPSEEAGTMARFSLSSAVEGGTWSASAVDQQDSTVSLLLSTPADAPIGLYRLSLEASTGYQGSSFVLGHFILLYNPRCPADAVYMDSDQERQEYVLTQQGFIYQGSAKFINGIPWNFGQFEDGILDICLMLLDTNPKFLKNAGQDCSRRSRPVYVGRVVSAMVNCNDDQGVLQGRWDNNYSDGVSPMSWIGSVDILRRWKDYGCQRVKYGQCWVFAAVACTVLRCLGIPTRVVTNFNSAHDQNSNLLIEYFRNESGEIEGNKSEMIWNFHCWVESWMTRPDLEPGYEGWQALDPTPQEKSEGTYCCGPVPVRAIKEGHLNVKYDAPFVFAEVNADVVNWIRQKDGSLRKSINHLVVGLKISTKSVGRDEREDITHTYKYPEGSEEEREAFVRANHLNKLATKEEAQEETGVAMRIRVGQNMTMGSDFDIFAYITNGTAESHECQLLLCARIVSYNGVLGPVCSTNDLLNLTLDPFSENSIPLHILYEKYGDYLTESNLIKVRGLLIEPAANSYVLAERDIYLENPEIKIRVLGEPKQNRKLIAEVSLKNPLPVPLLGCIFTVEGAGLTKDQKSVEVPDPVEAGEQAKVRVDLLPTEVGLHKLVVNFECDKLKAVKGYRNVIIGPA

T3: TGase 2 (as run on native gels), P21980
T3 chain: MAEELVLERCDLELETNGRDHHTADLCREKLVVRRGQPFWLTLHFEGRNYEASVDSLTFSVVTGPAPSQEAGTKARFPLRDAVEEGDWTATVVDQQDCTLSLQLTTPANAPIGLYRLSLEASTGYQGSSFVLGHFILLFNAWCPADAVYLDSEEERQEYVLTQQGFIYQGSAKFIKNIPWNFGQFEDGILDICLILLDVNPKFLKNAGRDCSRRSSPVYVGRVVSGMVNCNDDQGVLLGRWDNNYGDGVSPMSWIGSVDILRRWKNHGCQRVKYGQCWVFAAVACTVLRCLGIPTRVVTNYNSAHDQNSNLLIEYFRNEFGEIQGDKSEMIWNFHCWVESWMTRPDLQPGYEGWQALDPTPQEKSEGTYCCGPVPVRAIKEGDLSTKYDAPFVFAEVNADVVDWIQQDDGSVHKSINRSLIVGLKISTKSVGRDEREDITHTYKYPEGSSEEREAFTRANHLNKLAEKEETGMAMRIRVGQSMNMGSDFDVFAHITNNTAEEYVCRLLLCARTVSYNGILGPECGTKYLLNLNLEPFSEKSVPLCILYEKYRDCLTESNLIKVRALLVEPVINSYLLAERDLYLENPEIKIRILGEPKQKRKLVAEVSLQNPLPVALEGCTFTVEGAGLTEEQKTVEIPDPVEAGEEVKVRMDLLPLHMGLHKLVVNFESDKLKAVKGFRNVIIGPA


Columns and labels:
[1] = target: T1, transglutaminase 2 (TGase 2); assay: SPR (ProteOn XPR36); MS peptide masking supports the site; type: binding
guinea pig liver TGase 2 = target: T2, guinea pig liver TGase 2; assay: succinylated casein / […]-putrescine incorporation assay; type: biochemical, Cavia cutleri
[2] = target: T3, TGase 2 (as run on native gels), P21980; assay: native gel or EMSA; TGase 2 incubated with streptonigrin or GTP, 37 °C; native gel, immunoblot of TGase 2; monomer to dimer; settings: remark: other sources report otherwise

Row | fold increase in the density of the dimer band after streptonigrin treatment [2] [fold] | stoichiometry N [2] | Molecule | Kd [1] [nM] | IC50 (guinea pig liver TGase 2) [nM]
1 | – | – | COC1=C(N)C(=O)c2nc(-c3nc(C(=O)O)c(C)c(-c4ccc(OC)c(OC)c4O)c3N)ccc2C1=O [streptonigrin] | ~700 | 1700
2 | 2.4 | 2 | TGase 2 (as run on native gels), P21980 1-687 (enzyme) MAEELVLERCDLELETNGRDHHTADLCREKLVVRRGQPFWLTLHFEGRNYEASVDSLTFSVVTGPAPSQEAGTKARFPLRDAVEEGDWTATVVDQQDCTLSLQLTTPANAPIGLYRLSLEASTGYQGSSFVLGHFILLFNAWCPADAVYLDSEEERQEYVLTQQGFIYQGSAKFIKNIPWNFGQFEDGILDICLILLDVNPKFLKNAGRDCSRRSSPVYVGRVVSGMVNCNDDQGVLLGRWDNNYGDGVSPMSWIGSVDILRRWKNHGCQRVKYGQCWVFAAVACTVLRCLGIPTRVVTNYNSAHDQNSNLLIEYFRNEFGEIQGDKSEMIWNFHCWVESWMTRPDLQPGYEGWQALDPTPQEKSEGTYCCGPVPVRAIKEGDLSTKYDAPFVFAEVNADVVDWIQQDDGSVHKSINRSLIVGLKISTKSVGRDEREDITHTYKYPEGSSEEREAFTRANHLNKLAEKEETGMAMRIRVGQSMNMGSDFDVFAHITNNTAEEYVCRLLLCARTVSYNGILGPECGTKYLLNLNLEPFSEKSVPLCILYEKYRDCLTESNLIKVRALLVEPVINSYLLAERDLYLENPEIKIRILGEPKQKRKLVAEVSLQNPLPVALEGCTFTVEGAGLTEEQKTVEIPDPVEAGEEVKVRMDLLPLHMGLHKLVVNFESDKLKAVKGFRNVIIGPA | – | –
